According to PubChem BioAssay (NCI):
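These data come from cells grown in 96-well plates and exposed to compound for 48 hours at five concentrations. TGI: total growth inhibition.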

How the values were obtained:
Experiment in all cases: NCI-60 cell line screen, 48 h
ACHN renal = tested on: ACHN renal
SF-268 CNS = tested on: SF-268 CNS
DLD-1 colon = tested on: DLD-1 colon
DMS 114 small cell lung = tested on: DMS 114 small cell lung
HOP-92 NSCLC = tested on: HOP-92 NSCLC
HCT-116 colon = tested on: HCT-116 colon
KM20L2 colon = tested on: KM20L2 colon
SK-MEL-2 melanoma = tested on: SK-MEL-2 melanoma
LXFL 529 NSCLC = tested on: LXFL 529 NSCLC
NCI-H460 lung = tested on: NCI-H460 lung
PC-3 prostate = tested on: PC-3 prostate
T-47D breast = tested on: T-47D breast

Row | SMILES | TGI (ACHN renal) | TGI (SF-268 CNS) | TGI (DLD-1 colon) | TGI (DMS 114 small cell lung) | TGI (HOP-92 NSCLC) | TGI (HCT-116 colon) | TGI (KM20L2 colon) | TGI (SK-MEL-2 melanoma) | TGI (LXFL 529 NSCLC) | TGI (NCI-H460 lung) | TGI (PC-3 prostate) | TGI (T-47D breast)
1 | CCOc1ccc(NC(=O)CCc2nnc(SC)o2)cc1 | > 100 µM | > 100 µM | > 100 µM | > 100 µM | > 100 µM | > 100 µM | > 100 µM | > 100 µM | > 100 µM | > 100 µM | – | –
2 | Cc1cc2c(c(C(N)=O)c1C)-c1cc(Cl)cc(Cl)c1C2=O | > 100 µM | > 100 µM | > 100 µM | > 100 µM | > 100 µM | > 100 µM | > 100 µM | > 100 µM | > 100 µM | > 100 µM | – | –
3 | c1cc(-c2cn3c(n2)SCC3)ccn1 | > 100 µM | > 100 µM | > 100 µM | > 89.6 µM | > 100 µM | > 60.4 µM | > 100 µM | > 100 µM | > 100 µM | > 95.2 µM | – | –
4 | N#CC1(C#N)C(c2ccccc2)C=CC12OCCCO2 (stereo not drawn) | > 100 µM | > 100 µM | 95.4 µM | 67.8 µM | > 100 µM | > 100 µM | > 100 µM | > 100 µM | 95.2 µM | > 100 µM | – | –
5 | O=C(/C=C/c1ccc(Cl)c(Cl)c1)c1cccc2ccccc12 | 30 µM | 14.2 µM | 11.4 µM | 9.51 µM | 31.4 µM | 15.2 µM | 17.7 µM | – | 6.64 µM | 19.3 µM | – | –
6 | O=C(Cc1nc2ccccc2o1)C(=O)Nc1cccc(C(F)(F)F)c1 | > 100 µM | > 100 µM | > 100 µM | > 100 µM | > 100 µM | > 100 µM | > 100 µM | > 100 µM | > 100 µM | > 100 µM | – | –
7 | CC1=NN(c2ccccc2)C(=O)/C1=C\c1ccc([N+](=O)[O-])cc1 | > 100 µM | > 100 µM | > 100 µM | 50 µM | – | – | > 100 µM | 56 µM | > 100 µM | > 100 µM | – | –
8 | COc1ccc(-c2cc(=O)c3c(O)cccc3o2)c(OC)c1OC | > 100 µM | > 100 µM | > 100 µM | > 100 µM | > 100 µM | > 100 µM | > 100 µM | > 100 µM | > 100 µM | > 100 µM | – | –
9 | CC(C)(C)c1cc2nc(c1)C(C(F)(F)F)(C(F)(F)F)OB(Br)OC2(C(F)(F)F)C(F)(F)F | – | 17.8 µM | 12.8 µM | 0.421 µM | – | – | 1.25 µM | 11.2 µM | 13.9 µM | – | – | –
10 | N[C@H](COCc1ccccc1)c1ccccc1 | > 91.4 µM | > 100 µM | > 100 µM | 56.3 µM | 62 µM | 61.8 µM | 75.8 µM | 49.8 µM | 51.5 µM | 61.9 µM | – | –
11 | c1ccc2c(c1)CCc1c-2n[nH]c1-c1[nH]nc2c1CCc1ccccc1-2 | > 100 µM | > 100 µM | > 100 µM | > 100 µM | > 100 µM | > 100 µM | > 100 µM | > 100 µM | > 100 µM | > 100 µM | – | –
12 | CC1=C(C(=O)Nc2ccc(Cl)c(Cl)c2)C(c2ccc([N+](=O)[O-])cc2)C(C(=O)Nc2ccc(Cl)c(Cl)c2)=C(C)N1 | 16.9 µM | 14.8 µM | > 41.7 µM | 9.66 µM | 6.06 µM | 3.51 µM | 4.3 µM | 4.79 µM | 11.8 µM | 6.15 µM | – | –
13 | Cc1cccc(NC(=O)/C(=N\N)C(c2cnc3ccc([N+](=O)[O-])cc3n2)[N+](=O)[O-])c1C (stereo not drawn) | > 100 µM | > 100 µM | > 100 µM | > 100 µM | > 100 µM | > 100 µM | > 100 µM | > 100 µM | > 100 µM | > 100 µM | – | –
14 | COc1cc(C2(C)SCCCS2)cc(OC)c1OC | > 100 µM | > 100 µM | > 100 µM | > 100 µM | > 100 µM | > 100 µM | > 100 µM | > 100 µM | > 100 µM | > 100 µM | – | –
15 | CCCC(S(=O)(=O)c1ccccc1)S(=O)(=O)c1ccccc1 | > 100 µM | – | > 100 µM | > 100 µM | – | > 100 µM | > 100 µM | > 100 µM | > 100 µM | > 100 µM | – | –
16 | N#CCN1C(=O)c2cc([N+](=O)[O-])cc3cc([N+](=O)[O-])cc(c23)C1=O | 26.3 µM | 48.8 µM | 29.4 µM | 37.5 µM | 32.5 µM | > 42.7 µM | 23.6 µM | 14.1 µM | > 50.6 µM | 45.9 µM | – | –
17 | N#CNc1nc(N)c(-c2ccc(Cl)cc2)c(C(=O)Nc2nccs2)n1 | > 100 µM | > 100 µM | > 100 µM | > 100 µM | > 100 µM | > 100 µM | > 100 µM | > 100 µM | > 100 µM | > 100 µM | – | –
18 | Nc1nc(N)c(CCCCc2ccccc2)c(N)n1 | > 100 µM | > 100 µM | > 100 µM | > 100 µM | > 100 µM | > 100 µM | > 100 µM | > 100 µM | > 100 µM | > 100 µM | > 100 µM | > 100 µM
19 | Cc1cc(=O)c2c(O)cc3c(c2o1)CC=C(COC1OC(COC2OC(CO)C(O)C(O)C2O)C(O)C(O)C1O)CO3 (stereo not drawn) | > 100 µM | > 100 µM | > 100 µM | > 100 µM | > 100 µM | > 100 µM | > 100 µM | > 100 µM | > 100 µM | > 100 µM | – | –
